BigSolDB 2.1

## CCn1c2ccccc2c2ccccc21
In ethanol, 279.15 K
  solubility (mole fraction): 0.0069
In ethanol, 283.15 K
  solubility (mole fraction): 0.008
In ethanol, 287.15 K
  solubility (mole fraction): 0.0095
In ethanol, 291.15 K
  solubility (mole fraction): 0.0112
In ethanol, 295.15 K
  solubility (mole fraction): 0.013
In ethanol, 299.15 K
  solubility (mole fraction): 0.0149
In ethanol, 303.15 K
  solubility (mole fraction): 0.0182
In ethanol, 307.15 K
  solubility (mole fraction): 0.0228
In ethanol, 311.15 K
  solubility (mole fraction): 0.0274
In ethanol, 315.15 K
  solubility (mole fraction): 0.0355
In ethanol, 319.15 K
  solubility (mole fraction): 0.0433
In isopropanol, 279.15 K
  solubility (mole fraction): 0.0065
In isopropanol, 283.15 K
  solubility (mole fraction): 0.0076
In isopropanol, 287.15 K
  solubility (mole fraction): 0.009
In isopropanol, 291.15 K
  solubility (mole fraction): 0.0107
In isopropanol, 295.15 K
  solubility (mole fraction): 0.0127
In isopropanol, 299.15 K
  solubility (mole fraction): 0.0152
In isopropanol, 303.15 K
  solubility (mole fraction): 0.0183
In isopropanol, 307.15 K
  solubility (mole fraction): 0.0223
In isopropanol, 311.15 K
  solubility (mole fraction): 0.028
In isopropanol, 315.15 K
  solubility (mole fraction): 0.0342
In isopropanol, 319.15 K
  solubility (mole fraction): 0.0436
In methanol, 279.15 K
  solubility (mole fraction): 0.0028
In methanol, 283.15 K
  solubility (mole fraction): 0.0033
In methanol, 287.15 K
  solubility (mole fraction): 0.004
In methanol, 291.15 K
  solubility (mole fraction): 0.0047
In methanol, 295.15 K
  solubility (mole fraction): 0.0057
In methanol, 299.15 K
  solubility (mole fraction): 0.0068
In methanol, 303.15 K
  solubility (mole fraction): 0.0082
In methanol, 307.15 K
  solubility (mole fraction): 0.0098
In methanol, 311.15 K
  solubility (mole fraction): 0.012
In methanol, 315.15 K
  solubility (mole fraction): 0.0147
In methanol, 319.15 K
  solubility (mole fraction): 0.0179
In n-butanol, 279.15 K
  solubility (mole fraction): 0.0135
In n-butanol, 283.15 K
  solubility (mole fraction): 0.0151
In n-butanol, 287.15 K
  solubility (mole fraction): 0.0172
In n-butanol, 291.15 K
  solubility (mole fraction): 0.0208
In n-butanol, 295.15 K
  solubility (mole fraction): 0.0234
In n-butanol, 299.15 K
  solubility (mole fraction): 0.0271
In n-butanol, 303.15 K
  solubility (mole fraction): 0.0316
In n-butanol, 307.15 K
  solubility (mole fraction): 0.0379
In n-butanol, 311.15 K
  solubility (mole fraction): 0.0446
In n-butanol, 315.15 K
  solubility (mole fraction): 0.0522
In n-butanol, 319.15 K
  solubility (mole fraction): 0.0621
In n-pentanol, 283.15 K
  solubility (mole fraction): 0.016
In n-pentanol, 287.15 K
  solubility (mole fraction): 0.0183
In n-pentanol, 291.15 K
  solubility (mole fraction): 0.021
In n-pentanol, 295.15 K
  solubility (mole fraction): 0.025
In n-pentanol, 299.15 K
  solubility (mole fraction): 0.0292
In n-pentanol, 303.15 K
  solubility (mole fraction): 0.035
In n-pentanol, 307.15 K
  solubility (mole fraction): 0.042
In n-pentanol, 311.15 K
  solubility (mole fraction): 0.05
In n-pentanol, 315.15 K
  solubility (mole fraction): 0.0609
In n-pentanol, 319.15 K
  solubility (mole fraction): 0.0743
In n-propanol, 279.15 K
  solubility (mole fraction): 0.0092
In n-propanol, 283.15 K
  solubility (mole fraction): 0.0105
In n-propanol, 287.15 K
  solubility (mole fraction): 0.0124
In n-propanol, 291.15 K
  solubility (mole fraction): 0.0142
In n-propanol, 295.15 K
  solubility (mole fraction): 0.0169
In n-propanol, 299.15 K
  solubility (mole fraction): 0.0202
In n-propanol, 303.15 K
  solubility (mole fraction): 0.024
In n-propanol, 307.15 K
  solubility (mole fraction): 0.028
In n-propanol, 311.15 K
  solubility (mole fraction): 0.033
In n-propanol, 315.15 K
  solubility (mole fraction): 0.0401
In n-propanol, 319.15 K
  solubility (mole fraction): 0.048
